Experimental data: patent publication US6538006B1, “Retroviral protease inhibitors” (Pharmacia Corporation, priority 1998, dated 2003)

Legend:
HIV protease = target: T1, HIV protease (Human immunodeficiency virus type 1 group M subtype B, UniProt P04585); experiment: HIV protease enzyme assay (fluorogenic substrate); assay type: biochemical; details: for IC50: HIV protease 12.3 nanomolar, substrate 80 μM, pH 6.4, read-out: Enzyme Inhibition (IC50); for inhibition at 10 µM: read-out: inhibition of the HIV enzyme
T1 construct: final enzyme concentration of 12.3 nanomolar, based on a molecular weight of 10,780
Procedure: The calculated IC50 (inhibiting concentration 50%, i.e., the concentrations at which the inhibitor compound reduces enzyme activity by 50%) values are shown in Table 1. The enzyme method is described below. The substrate is 2-aminobenzoyl-Ile-Nle-Phe(p-NO2)-Gln-ArgNH2. The positive control is MVT-101 (Miller, M. et al, Science, 246, 1149 (1989)]. The assay conditions are as follows:
Assay buffer: 20 mM sodium phosphate, pH 6.4
The above described substrate is dissolved in DMSO, then diluted 10 fold in assay buffer. Final substrate concentration in the assay is 80 μM.
HIV protease is diluted in the assay buffer to a final enzyme concentration of 12.3 nanomolar, based on a molecular weight of 10,780.
The final concentration of DMSO is 14% and the final concentration of glycerol is 18%. The test compound is dissolved in DMSO and diluted in DMSO to 10× the test concentration; 10 μL of the enzyme preparation is added, the materials mixed and then the mixture is incubated at ambient temperature for 15 minutes. The enzyme reaction is initiated by the addition of 40 μL of substrate. The increase in fluorescence is monitored at 4 time points (0, 8, 16 and 24 minutes) at ambient temperature. Each assay is carried out in duplicate wells.

HIV-1 = experiment: CEM cell assay, HIV inhibition in acutely infected cells (MTT); assay type: cell-based; details: Human immunodeficiency virus 1, CCRF-CEM, 168 h; CEM cells infected with HIV-1, 7 days, reduces cytopathicity by 50%; read-out: Antiviral Activity in Cell Culture (EC50)
Procedure: (§1) The effectiveness of the compounds tested in Part A was also determined in a CEM cell assay. The HIV inhibition assay method of acutely infected cells is an automated tetrazolium based calorimetric assay essentially that reported by Pauwles et al, J. Virol. Methods 20, 309-321 (1988). Assays were performed in 96-well tissue culture plates. CEM cells, a CD4^+ cell line, were grown in RPMI-1640 medium (Gibco) supplemented with a 10% fetal calf serum and were then treated with polybrene ([…]). An 80 μL volume of medium containing 1×10^4 cells was dispensed into each well of the tissue culture plate. To each well was added a 100 μL volume of test compound dissolved in tissue culture medium (or medium without test compound as a control) to achieve the desired final concentration and the cells were incubated at 37° C. for 1 hour. A frozen culture of HIV-1 was diluted in culture medium to a concentration of 5×10^4 TCID50 per mL (TCID50=the dose of virus that infects 50% of cells in tissue culture), and a 20 μL volume of the virus sample (containing 1000 TCID50 of virus) was added to wells containing test compound and to wells containing only medium (infected control cells). Several wells received culture medium without virus (uninfected control cells). Likewise, the intrinsic toxicity of the test compound was determined by adding medium without virus to several wells containing test compound. In summary, the tissue culture plates contained the following experiments:
(§2) In experiments 2 and 4, the final concentrations of test compounds were 1, 10, 100 and 500 μg/mL. Either azidothymidine (AZT) or dideoxyinosine (ddI) was included as a positive drug control. […] DMSO was added to all control wells at an appropriate concentration.
(§3) Following the addition of virus, cells were incubated at 37° C. in a humidified, 5% CO2 atmosphere for 7 days. Test compounds could be added on days 0, 2 and 5 if desired. On day 7, post-infection, the cells in each well were resuspended and a 100 μL sample of each cell suspension was removed for assay. A 20 μL volume of a 5 mg/mL solution of 3-(4,5-dimethylthiazol-2-yl)-2,5-diphenyltetrazolium bromide (MTT) was added to each 100 μL cell suspension, and the cells were incubated for 4 hours at […] in a 5% CO2 environment. […] To each sample was added 100 μL of 10% sodium dodecylsulfate in 0.01 N HCl to lyse the cells, and samples were incubated overnight. The absorbance at 590 nm was determined for each sample using a Molecular Devices microplate reader. Absorbance values for each set of wells is compared to assess viral control infection, uninfected control cell response as well as test compound by cytotoxicity and antiviral efficacy.
(§4) The calculated EC50 (effective concentration 50%, i.e., the concentration at which the inhibitor compound reduces cytopathicity by 50%) and TD50 (toxic dose 50%, i.e., the concentration at which the inhibitor compound reduces cellular viability by 50%) values for these compounds are also shown in Table 1.

CEM cells = experiment: CEM cell assay, intrinsic toxicity of test compound (MTT, no virus); assay type: cell-based; details: CEM cells without virus, reduces cellular viability by 50%
Procedure: as §1, §2, §3, §4

Row | SMILES | IC50 (HIV protease) [nM] | EC50 (HIV-1) [nM] | Cell Toxicity (TD50) (CEM cells) | inhibition at 10 µM (HIV protease) [%]
1 | C[C@H](CS(C)(=O)=O)C(=O)N[C@@H](Cc1ccccc1)[C@H](O)CN1C[C@H]2CCCC[C@H]2C[C@H]1C(=O)NC(C)(C)C | 7 | 42 | 58,000 nM | –
2 | COc1ccc(COC(=O)NC[C@@H](C)C(=O)N[C@@H](Cc2ccccc2)[C@H](O)CN2C[C@H]3CCCC[C@H]3C[C@H]2C(=O)NC(C)(C)C)cc1 | 2 | 52 | 2,000 nM | –
3 | CC(C)(C)NC(=O)[C@@H]1C[C@@H]2CCCC[C@@H]2CN1C[C@@H](O)[C@H](Cc1ccccc1)NC(=O)C[C@H](NC(=O)c1ccc2ccccc2n1)C(N)=O | 9 | 37 | 5,000 nM | –
4 | C[C@@H](C(=O)N[C@@H](Cc1ccccc1)[C@H](O)CN1C[C@H]2CCCC[C@H]2C[C@H]1C(=O)NC(C)(C)C)C(C)(C)CN | 9 | 98 | 59,000 nM | –
5 | C[C@@H](C(=O)N[C@@H](Cc1ccccc1)[C@H](O)CN1C[C@H]2CCCC[C@H]2C[C@H]1C(=O)NC(C)(C)C)C(C)(C)C(=O)O | 23 | 184 | 50,000 nM | –
6 | COc1ccc(COC(=O)NC[C@@H](C)C(=O)N[C@@H](Cc2ccccc2)[C@H](O)CN2C[C@H]3CCCC[C@H]3C[C@H]2C(=O)NC(C)(C)C)cc1 (relative stereo) [Example 4, Carbamic Acid, [3-[[3-[3-[[(1,1-Dimethylethyl)-amino]carbonyl]octahydro-2(1H)-isoquinolinyl]-2-hydroxy-1-(phenylmethyl)propyl]amino]-2-methyl-3-oxopropyl]-, (4-Methoxyphenyl)methyl Ester, [3S-[2(1R*,(S*),2S*),3α,4aβ,8aβ]]-] | – | – | – | 3 to 100
7 | C[C@H](CS(C)(=O)=O)C(=O)N[C@@H](Cc1ccccc1)[C@H](O)CN1C[C@H]2CCCC[C@H]2C[C@H]1C(=O)NC(C)(C)C (relative stereo) [Example 6, 3-Isoquinolinecarboxamide, N-(1,1-Dimethylethyl)decahydro-2-[2-hydroxy-3-[[2-methyl-3-(methylsulfonyl)-1-oxopropyl]amino]-4-phenylbutyl]-, [3S-[2(2S*,3S*(R*)],3α,4aβ,8aβ]]-] | – | – | – | 3 to 100
8 | CC(C)(C)NC(=O)[C@@H]1C[C@@H]2CCCC[C@@H]2CN1C[C@@H](O)[C@H](Cc1ccccc1)NC(=O)C[C@H](NC(=O)c1ccc2ccccc2n1)C(N)=O (relative stereo) [Example 10, Butanediamide, N^4-[3-[3-[[((1,1-Dimethylethyl)-amino]carbonyl]octahydro-2(1H)-isoquinolinyl]-2-hydroxy-1-(phenylmethyl)propyl]-2-[(2-quinolinylcarbonyl)amino]-, [3S[2[1R*(R*),2S*],3α,4aβ,8aβ]]-] | – | – | – | 3 to 100
9 | C[C@@H](C(=O)N[C@@H](Cc1ccccc1)[C@H](O)CN1C[C@H]2CCCC[C@H]2C[C@H]1C(=O)NC(C)(C)C)C(C)(C)C(N)=O (relative stereo) [Example 12, Butanamide, 4-[[3-[3-[[(1,1-Dimethylethyl)-amino]carbonyl]octahydro-2(1H)-isoquinolinyl]-2-hydroxy-1-(phenylmethyl)propyl]amino]-2,2,3-trimethyl-4-oxo-, [3S-[2[1R*(S*),2S*],3α,4aβ,8aβ]]-] | – | – | – | 3 to 100
10 | C[C@@H](C(=O)N[C@@H](Cc1ccccc1)[C@H](O)CN1C[C@H]2CCCC[C@H]2C[C@H]1C(=O)NC(C)(C)C)C(C)(C)C(=O)O (relative stereo) [Example 12C, butanoic acid, 4-[[3-[3-[[(1,1-dimethylethyl)amino]carbonyl]octahydro-2(1H)-isoquinolinyl]-2-hydroxy-1-(phenylmethyl)propyl]amino]-2,2,3-trimethyl-4-oxo-, [3S-[2[1R*(S*),2S*],3α,4aβ,8aβ]]-] | – | – | – | 3 to 100
